According to US9040533B2, “Oxime-substituted-quinoxaline-type piperidine compounds as ORL-1 modulators” (priority 2012, dated 2015):

Columns and labels:
[1] = molecular target: T1, CYP1A2 (Homo sapiens, UniProt P05177); assay: biochemical
T1 sequence (P05177 1-516): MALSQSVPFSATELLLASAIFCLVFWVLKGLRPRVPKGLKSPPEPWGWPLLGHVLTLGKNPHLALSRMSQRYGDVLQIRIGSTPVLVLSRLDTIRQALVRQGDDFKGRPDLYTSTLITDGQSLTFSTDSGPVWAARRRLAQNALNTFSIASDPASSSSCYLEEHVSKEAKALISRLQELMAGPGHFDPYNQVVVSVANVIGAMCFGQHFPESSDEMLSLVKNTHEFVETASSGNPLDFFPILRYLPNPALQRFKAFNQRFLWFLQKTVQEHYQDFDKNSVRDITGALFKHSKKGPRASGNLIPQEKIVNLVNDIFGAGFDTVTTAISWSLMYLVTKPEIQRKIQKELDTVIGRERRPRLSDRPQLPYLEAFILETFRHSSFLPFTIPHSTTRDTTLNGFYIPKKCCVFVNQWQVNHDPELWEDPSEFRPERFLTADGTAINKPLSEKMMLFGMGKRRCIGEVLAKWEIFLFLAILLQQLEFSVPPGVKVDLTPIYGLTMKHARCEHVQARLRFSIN

[2] = molecular target: CYP2D6 (Homo sapiens, UniProt P10635); assay: biochemical
CYP2D6, sequence (P10635 whole entry): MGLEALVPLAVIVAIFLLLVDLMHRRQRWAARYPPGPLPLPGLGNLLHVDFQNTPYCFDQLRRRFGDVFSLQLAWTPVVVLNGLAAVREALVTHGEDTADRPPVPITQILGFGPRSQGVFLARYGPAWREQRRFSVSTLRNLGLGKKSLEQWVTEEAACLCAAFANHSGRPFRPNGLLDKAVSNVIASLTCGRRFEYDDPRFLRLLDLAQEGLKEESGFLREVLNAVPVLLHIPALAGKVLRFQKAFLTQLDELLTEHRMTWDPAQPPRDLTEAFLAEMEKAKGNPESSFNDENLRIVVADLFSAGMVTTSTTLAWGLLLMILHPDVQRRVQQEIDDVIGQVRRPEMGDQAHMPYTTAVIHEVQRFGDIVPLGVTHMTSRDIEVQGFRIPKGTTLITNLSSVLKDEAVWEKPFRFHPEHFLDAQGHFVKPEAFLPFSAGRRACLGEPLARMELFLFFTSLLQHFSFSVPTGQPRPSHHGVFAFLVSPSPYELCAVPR

[3] = molecular target: CYP2C19 (Homo sapiens, UniProt P33261); assay: biochemical
CYP2C19, sequence (P33261 whole entry): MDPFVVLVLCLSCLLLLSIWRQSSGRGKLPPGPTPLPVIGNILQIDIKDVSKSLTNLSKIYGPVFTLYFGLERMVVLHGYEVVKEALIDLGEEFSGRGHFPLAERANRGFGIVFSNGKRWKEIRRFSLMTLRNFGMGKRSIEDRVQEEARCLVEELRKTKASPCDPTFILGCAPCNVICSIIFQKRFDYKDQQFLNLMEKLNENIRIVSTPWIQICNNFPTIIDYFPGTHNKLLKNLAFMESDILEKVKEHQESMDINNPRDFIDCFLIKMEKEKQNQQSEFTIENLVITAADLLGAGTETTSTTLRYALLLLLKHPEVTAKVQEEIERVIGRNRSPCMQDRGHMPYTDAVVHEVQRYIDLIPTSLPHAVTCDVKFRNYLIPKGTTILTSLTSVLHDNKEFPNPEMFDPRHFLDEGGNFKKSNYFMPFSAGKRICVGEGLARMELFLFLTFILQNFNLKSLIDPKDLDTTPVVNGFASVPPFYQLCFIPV

[4] = molecular target: CYP2C9 (Homo sapiens, UniProt P11712); assay: biochemical
CYP2C9, sequence (P11712 whole entry): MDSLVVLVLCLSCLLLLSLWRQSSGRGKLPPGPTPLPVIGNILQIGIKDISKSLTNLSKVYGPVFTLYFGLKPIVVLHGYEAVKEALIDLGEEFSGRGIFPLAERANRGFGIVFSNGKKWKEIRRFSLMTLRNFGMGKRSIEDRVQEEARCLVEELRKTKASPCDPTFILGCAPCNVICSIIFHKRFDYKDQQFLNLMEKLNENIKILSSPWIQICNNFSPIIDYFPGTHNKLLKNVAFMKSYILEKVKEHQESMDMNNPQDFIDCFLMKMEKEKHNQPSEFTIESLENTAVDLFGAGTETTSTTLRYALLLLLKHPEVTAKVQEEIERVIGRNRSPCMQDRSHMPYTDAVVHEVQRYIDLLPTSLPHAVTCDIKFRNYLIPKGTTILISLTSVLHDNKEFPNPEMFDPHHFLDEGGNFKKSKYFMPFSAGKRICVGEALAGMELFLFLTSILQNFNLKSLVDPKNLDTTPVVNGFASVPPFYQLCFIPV

[5] = molecular target: CYP3A4 (Homo sapiens, UniProt P08684); assay: biochemical
CYP3A4, sequence (P08684 whole entry): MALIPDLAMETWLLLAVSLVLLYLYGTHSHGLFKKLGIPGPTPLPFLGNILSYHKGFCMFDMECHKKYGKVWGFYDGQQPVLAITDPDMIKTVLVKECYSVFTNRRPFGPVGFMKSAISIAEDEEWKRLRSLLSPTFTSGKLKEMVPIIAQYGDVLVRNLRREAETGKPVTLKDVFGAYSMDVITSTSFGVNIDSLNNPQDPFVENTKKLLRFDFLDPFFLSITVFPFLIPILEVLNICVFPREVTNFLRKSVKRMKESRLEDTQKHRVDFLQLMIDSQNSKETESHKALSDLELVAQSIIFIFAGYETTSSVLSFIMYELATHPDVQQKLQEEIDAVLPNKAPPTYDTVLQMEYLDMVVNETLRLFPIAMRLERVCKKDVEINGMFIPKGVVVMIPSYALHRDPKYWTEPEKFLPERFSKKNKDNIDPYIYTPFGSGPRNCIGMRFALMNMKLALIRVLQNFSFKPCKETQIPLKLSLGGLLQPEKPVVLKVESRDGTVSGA

[6] = molecular target: human opioid receptor-like (ORL-1) (Homo sapiens, UniProt P41146); assay: ORL-1 receptor [35S]GTPγS functional binding assay; assay type: biochemical
human opioid receptor-like (ORL-1), sequence (P41146 whole entry): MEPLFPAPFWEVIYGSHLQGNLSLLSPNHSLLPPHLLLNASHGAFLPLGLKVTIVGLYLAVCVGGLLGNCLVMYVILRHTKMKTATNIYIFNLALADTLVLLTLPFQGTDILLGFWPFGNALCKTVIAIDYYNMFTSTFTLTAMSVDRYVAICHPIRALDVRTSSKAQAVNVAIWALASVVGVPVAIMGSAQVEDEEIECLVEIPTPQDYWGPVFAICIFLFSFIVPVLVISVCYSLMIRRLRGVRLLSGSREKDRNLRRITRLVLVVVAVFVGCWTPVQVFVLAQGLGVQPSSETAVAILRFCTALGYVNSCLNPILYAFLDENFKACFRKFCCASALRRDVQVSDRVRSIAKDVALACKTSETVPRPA

[7] = molecular target: human μ-opioid receptors (Homo sapiens, UniProt P35372); assay: In vitro mu-opioid receptor binding assay ([3H]-diprenorphine displacement); settings: read-out: Mu opioid receptor Ki [Average ± Std Deviation]
human μ-opioid receptors, sequence (P35372 whole entry): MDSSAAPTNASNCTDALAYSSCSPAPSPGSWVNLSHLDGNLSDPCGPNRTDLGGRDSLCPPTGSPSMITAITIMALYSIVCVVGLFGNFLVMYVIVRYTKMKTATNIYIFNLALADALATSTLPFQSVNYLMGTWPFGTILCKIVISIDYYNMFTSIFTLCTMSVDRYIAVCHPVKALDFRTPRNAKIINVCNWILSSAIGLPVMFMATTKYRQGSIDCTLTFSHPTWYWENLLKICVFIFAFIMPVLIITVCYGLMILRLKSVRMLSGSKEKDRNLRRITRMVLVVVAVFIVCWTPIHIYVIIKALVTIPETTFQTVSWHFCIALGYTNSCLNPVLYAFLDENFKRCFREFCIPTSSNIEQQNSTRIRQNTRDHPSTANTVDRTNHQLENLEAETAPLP

[8] = molecular target: delta opioid receptor (Homo sapiens, UniProt P41143); assay: In vitro delta-opioid receptor binding assay ([3H]-Naltrindole displacement)
delta opioid receptor, sequence (P41143 whole entry): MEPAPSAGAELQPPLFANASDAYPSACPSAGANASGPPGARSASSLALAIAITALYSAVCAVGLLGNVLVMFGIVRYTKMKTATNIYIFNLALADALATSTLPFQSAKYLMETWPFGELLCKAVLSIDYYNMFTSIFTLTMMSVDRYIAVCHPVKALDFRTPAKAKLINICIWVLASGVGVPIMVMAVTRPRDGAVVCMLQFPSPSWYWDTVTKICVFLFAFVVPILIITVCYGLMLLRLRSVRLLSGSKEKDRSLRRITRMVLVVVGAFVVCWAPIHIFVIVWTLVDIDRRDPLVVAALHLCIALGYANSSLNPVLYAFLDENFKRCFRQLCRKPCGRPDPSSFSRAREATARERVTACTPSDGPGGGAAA

[9] = molecular target: human kappa opioid receptor (Homo sapiens, UniProt P41145); assay: In vitro kappa-opioid receptor binding assay ([3H]-U69,593 displacement)
human kappa opioid receptor, sequence (P41145 whole entry): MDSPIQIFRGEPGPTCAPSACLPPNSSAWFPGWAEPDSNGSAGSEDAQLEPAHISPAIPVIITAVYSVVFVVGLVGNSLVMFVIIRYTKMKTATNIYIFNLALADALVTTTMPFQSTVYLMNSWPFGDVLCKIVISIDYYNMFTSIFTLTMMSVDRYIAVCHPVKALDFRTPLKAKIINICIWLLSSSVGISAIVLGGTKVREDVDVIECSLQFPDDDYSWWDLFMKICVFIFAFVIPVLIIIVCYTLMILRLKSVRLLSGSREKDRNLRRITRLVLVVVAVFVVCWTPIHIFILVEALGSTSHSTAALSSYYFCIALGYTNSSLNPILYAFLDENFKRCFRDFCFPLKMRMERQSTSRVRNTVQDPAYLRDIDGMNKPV

## C/C(=N\OCC(=O)O)c1nc2ccccc2n([C@H]2C[C@H]3CCC[C@@H](C2)N3C2CCCCCCCCC2)c1=O [Compound 21]
[1]
  IC50: > 20 µM
[2]
  IC50: > 20 µM
[3]
  IC50: > 20 µM
[4]
  IC50: > 20 µM
[5]
  IC50: > 20 µM
[6]
  EC50: 0.239 ± 0.0254 µM

## CON=C(CCC(=O)O)c1nc2ccccc2n([C@H]2C[C@H]3CC[C@@H](C2)N3C2CC3CCCC(C3)C2)c1=O (stereo partly drawn) [Compound 14, 4-(4-((1R,3R)-8-(bicyclo[3.3.1]nonan-3-yl)-8-azabicyclo[3.2.1]octan-3-yl)-3-oxo-3,4-dihydroquinoxalin-2-yl)-4-(methoxyimino)butanoic acid]
[1]
  IC50: > 20 µM
[2]
  IC50: > 20 µM
[7]
  Ki: 2.3 ± 0.153 µM
[3]
  IC50: > 20 µM
[4]
  IC50: > 20 µM
[5]
  IC50: > 20 µM
[8]
  Ki: > 20 µM
[9]
  Ki: 2.76 ± 0.245 µM
[6]
  EC50: 0.15 ± 0.014 µM

## NC(=O)/C(=N\OCC(=O)O)c1nc2ccccc2n([C@H]2C[C@H]3CCC[C@@H](C2)N3C2CC3CCCC(C3)C2)c1=O (stereo partly shown) [Compound 40]
[1]
  IC50: > 20 µM
[2]
  IC50: > 20 µM
[7]
  Ki: 2.71 ± 0.285 µM
[3]
  IC50: > 20 µM
[4]
  IC50: > 20 µM
[5]
  IC50: > 20 µM
[8]
  Ki: > 20 µM
[9]
  Ki: 1.7 ± 0.278 µM
[6]
  EC50: 0.113 ± 0.031 µM

## CO/N=C(\CCC(=O)O)c1nc2ccccc2n([C@H]2C[C@H]3CCC[C@@H](C2)N3C2CCCCCCCC2)c1=O [Compound 10, 4-[4-((1R,3R,7S)-9-cyclononyl-9-aza-bicyclo[3.3.1]non-3-yl)-3-oxo-3,4-dihydro-quinoxalin-2-yl]-4-methoxyimino-butyric acid]
[1]
  IC50: > 20 µM
[2]
  IC50: > 20 µM
[3]
  IC50: > 20 µM
[4]
  IC50: > 20 µM
[5]
  IC50: > 20 µM
[6]
  EC50: 0.104 ± 0.012 µM

## CON=C(CCC(=O)O)c1nc2ccccc2n([C@H]2C[C@H]3COC[C@@H](C2)N3C2CC3CCCCC(C3)C2)c1=O (stereo partly shown) [Compound 48]
[1]
  IC50: > 20 µM
[2]
  IC50: > 20 µM
[7]
  Ki: 15.6 µM
[3]
  IC50: > 20 µM
[4]
  IC50: > 20 µM
[5]
  IC50: > 20 µM
[8]
  Ki: > 20 µM
[9]
  Ki: > 20 µM
[6]
  EC50: 0.149 ± 0.029 µM

## C/C(=N\OCC(=O)O)c1nc2ccccc2n([C@H]2C[C@H]3CCC[C@@H](C2)N3C2CC3CCCC(C3)C2)c1=O (stereo partly shown) [Compound 16]
[1]
  IC50: > 20 µM
[2]
  IC50: > 20 µM
[3]
  IC50: > 20 µM
[4]
  IC50: > 20 µM
[5]
  IC50: > 20 µM

## CNC(=O)CON=C(C(=O)O)c1nc2ccccc2n([C@H]2C[C@H]3CCC[C@@H](C2)N3C2CC3CCCC(C3)C2)c1=O (stereo partly shown) [Compound 64]
[1]
  IC50: > 20 µM
[2]
  IC50: > 20 µM
[3]
  IC50: > 20 µM
[4]
  IC50: > 20 µM
[5]
  IC50: > 20 µM

## NC(=O)CO/N=C(\CCC(=O)O)c1nc2ccccc2n([C@H]2C[C@H]3CCC[C@@H](C2)N3C2CC3CCCCC(C3)C2)c1=O (stereo partly drawn) [Compound 41, (E)-4-(2-amino-2-oxoethoxyimino)-4-(4-((1R,3R)-9-(bicyclo[4.3.1]decan-8-yl)-9-azabicyclo[3.3.1]nonan-3-yl)-3-oxo-3,4-dihydroquinoxalin-2-yl)butanoic acid]
[1]
  IC50: > 20 µM
[2]
  IC50: > 20 µM
[3]
  IC50: > 20 µM
[4]
  IC50: > 20 µM
[5]
  IC50: > 20 µM

## O=C(O)CCC(=NO)c1nc2ccccc2n([C@H]2C[C@H]3CCC[C@@H](C2)N3C2CC3CCCC(C3)C2)c1=O (stereo partly drawn) [Compound 7, 4-[4-((1R,3R)—(S)-9-bicyclo[3.3.1]non-3-yl-9-aza-bicyclo[3.3.1]non-3-yl)-3-oxo-3,4-dihydro-quinoxalin-2-yl]-4-hydroxyimino-butyric acid]
[1]
  IC50: > 20 µM
[2]
  IC50: > 20 µM
[3]
  IC50: > 20 µM
[4]
  IC50: > 20 µM
[5]
  IC50: > 20 µM

## CCO/N=C(\CCC(=O)O)c1nc2ccccc2n([C@H]2C[C@H]3CCC[C@@H](C2)N3C2CC3CCCC(C3)C2)c1=O (stereo partly drawn) [Compound 11, 4-[4-((1R,3R,7S)-9-bicyclo[3.3.1]non-3-yl-9-aza-bicyclo[3.3.1]non-3-yl)-3-oxo-3,4-dihydro-quinoxalin-2-yl]-4-ethoxyimino-butyric acid]
[1]
  IC50: > 20 µM
[2]
  IC50: > 20 µM
[3]
  IC50: > 20 µM
[4]
  IC50: > 20 µM
[5]
  IC50: > 20 µM
